Data taken from PMC4552634, “A New Set of Chemical Starting Points with Plasmodium falciparum Transmission-Blocking Potential for Antimalarial Drug Discovery” (PLoS ONE, 2015).
Read-outs that look alike come from different tables or passages of the source.

Experiments:
[1] = system: P. falciparum stage V gametocytes; assay: Gametocytocidal ATP bioluminescence assay (single point 5 μM and 1 μM, dose-response); format: cell-based, Plasmodium falciparum; settings: for Ratio IC50 HepG2/IC50 P. falciparum: IC50 HepG2 divided by IC50 P. falciparum gametocytes; for IC90: ATP assay, Fig 7, read-out: IC90 against gametocytes
Method: Purified stage IV-V gametocytes were obtained as previously described [10]. Single point ATP bioluminescence assay and dose–response of positive hits was determined in accordance with the previously published protocol [10].

[2] = system: luciferase reaction (BacTiter-Glo); assay: Interference assay (inhibition of the BacTiter-Glo luciferase reaction); format: biochemical; parameters: concentration or dose not given beside the values; settings: ATP interference assay
Method: To discard possible false-positive results, we performed an interference assay in parallel. […] […]. The ATP solution was made by dissolving ATP powder (ATP standard from the ATPlite 1 step assay kit, reference 6016731, Perkin Elmer) in culture medium. The positive control used was the Luciferase Inhibitor I Calbiochem (Merck, 119113) at 100 μM.

[3] = system: P. falciparum asexual stages; settings: cited from earlier work
[4] = system: KCa2.2, a calcium-dependent K+ channel; parameters: method as in TCAMS annotation; settings: target annotation in TCAMS; ref TCAMS annotation; cited from earlier work
[5] = system: P. falciparum NF54 gametocytes fed to An. stephensi mosquitoes; assay: Standard membrane feeding assay (SMFA); format: in vivo, Plasmodium falciparum; settings: for Infection Prevalence (%): An. stephensi fed gametocytes treated 48 h at the IC90, Fig 6, one of two independent experiments, control 94%; for % Prevalence of infection / % Reduction oocysts SMFA / Block in Transmission (%) / Reduction in Oocyst (%): gametocytes treated 48 h at the IC90; for % Prevalence of infection / % Reduction oocysts SMFA: Fig 7; for Block in Transmission (%) / Reduction in Oocyst (%): normalized to DMSO control, Fig 6; for Reduction in Oocyst (%): mean oocyst intensity
Method: Gametocyte cultures of the P. falciparum NF54 strain, kindly provided by Robert Sinden (Imperial College London), were induced at 0.5% asexual parasitemia and 4% hematocrit (RBCs from the Spanish Red Cross) at 40 mL final volume in T75 flasks. Gametocyte production media comprised RPMI 1640 (Sigma, #R5886), 30 mM bicarbonate (Sigma-Aldrich, #S5761) and 5 mM hypoxanthine (Gibco, #11067–030). Media were made complete with 5% human serum A^+ (Interstate Blood Bank, USA) and 5% AlbuMAX II (Gibco, #11021–037). Cultures were maintained in a gassed incubator at 37°C with 5% CO2, 5% O2, 90% N2 for 14–17 days post-induction, with daily medium replacement without the addition of fresh RBCs. Percentages of mature gametocytes were assessed by microscopic counts (Leica, DM2000) of Giemsa-stained thin blood smears, and functional microgametocytes were assessed for exflagellation activity at room temperature. To test exflagellation, mature gametocyte cultures were centrifuged at 1800 rpm for one minute. The infected RBC pellet was gently mixed with an equal volume of pre-warmed human serum and introduced onto a slide with a coverslip, followed by incubation at room temperature for 10–15 min. The average exflagellation centers per field at 10X magnification was determined by the exflagellation assay described above. Gametocyte counts and exflagellation assays were performed both before and after gametocyte drug treatment (at the time of SMFA).
Two days before gametocyte treatment with compound, spent media was removed and fresh Gametocyte Treatment Medium consisting of RPMI1640 with L-glutamine and 25 mM HEPES (Gibco, #13018–031), 10 mM glucose (Sigma-Aldrich, #G8270), 20 mM bicarbonate (Sigma-Aldrich, #S5761) and 5 mM hypoxanthine (Gibco, #11067) was added. Media were made complete with 10% of human A^+ serum (Interstate Blood Bank). Five ml of mature gametocyte culture at day 15 post-induction was transferred into each well of a pre-warmed 6-well plate. The selected TCAMS compounds were prepared fresh as a stock solution of 10 mM in 100% of DMSO and added to the mature gametocytes at the concentrations described in Fig 7. Gametocytes were exposed to the compound for a total duration of 48 h. At 24 h post-drug exposure, a fixed volume (3 mL) of spent medium was removed and fresh medium was re-added, accompanied by compound replenishment to obtain the required final concentration. Untreated gametocytes with the same final concentration of DMSO (0.1%) as in treated gametocytes were processed in parallel.
On the day of the feed, cultures were centrifuged at 2500 g for 3 min at 37°C, diluted 1:1 with 100% packed cell volume of fresh RBCs, and finally formulated as artificial mosquito blood meals at 50% hematocrit with pre-warmed human serum. All steps were performed at 37°C. Prepared blood meals were fed in duplicate to 4–6 days old female An. stephensi mosquitoes for 30–40 min via Parafilm membrane attached to glass feeders (Fisher Scientific, #12831283) connected to a 37°C circulating water bath. Fed mosquitoes were maintained in an incubator at 27°C and 75% relative humidity with 12 h light/dark cycles. At 7–8 days post-feeding, mosquitoes with fully developed ovaries were dissected for midguts (Leica, M80) and incubated in 0.2% mercurochrome solution in distilled water for 10–15 min. The total number of oocysts in individual midguts was counted using a light microscope (Leica, DM2000) under a 10X objective (100X magnification). Both infection prevalence (percentage of mosquitoes with one or more oocysts) and mean oocyst intensity of infection were defined in each treatment. The percentage block in transmission and the percentage reduction in mean oocyst intensity were calculated after normalizing to the Control DMSO-treated sample.

[6] = system: mature P. falciparum NF54 gametocytes (male gametocyte exflagellation); assay: Exflagellation assay; format: cell-based, Plasmodium falciparum; settings: for % Exflagellation inh. at the IC90: 48 h, concentration = IC90, Fig 7; for % Inhibition exflagellation: 48 h post-treatment at the IC90 of the ATP assay, normalized to control, Fig 6
Method: The exflagellation assay was performed as described by Delves et al., with some modifications. Briefly, 200 μL samples of mature P. falciparum NF54 gametocytes culture in the presence of the corresponding test compound were incubated at 37°C for 48 h in an atmosphere of 5% CO2, 5% O2, 90% N2 in 1.5 mL microfuge tubes. After the incubation period, cells were settled down and medium was carefully removed. The cell pellets were resuspended in 15 μl of complete ookinete medium (RPMI medium with 25 mM HEPES, 50 mg/L hypoxanthine, 2 g/L sodium bicarbonate, 100 μM xanthurenic acid, 20% human serum) pre-warmed at 37°C. Once parasites were resuspended in ookinete medium, they were introduced in a chamber of a FastRead disposable hemocytometer slide and placed on a horizontal surface at room temperature (21°C), to allow cells to homogeneously settle, forming a tight monolayer.

[7] = Cytotoxicity in HepG2 cells (intracellular ATP, ATPlite, 48 h); format: cell-based, human; settings: human, HepG2 cells
HepG2 cells = assay: as above; format: cell-based, human; settings: for Ratio IC50 HepG2/IC50 P. falciparum: IC50 HepG2 divided by IC50 P. falciparum gametocytes
[8] = system: P. falciparum stage V gametocytes; assay: microbe, parasite or virus in culture; parameters: BacTiter-Glo ATP luminescence viability of stage V gametocytes, 11-point dose-response IC50; settings: Plasmodium falciparum, 48 h; sheet CSAanalogstable
Method: Once purified, gametocytes were counted using a Neubauer chamber, and the density was adjusted to 2.5 x 10^5 gametocytes/mL. Fifty μL of the gametocyte suspension (1.25 x 10^4 gametocytes) were added to each well of the 384-well plate containing the compounds, using a Multidrop combi (Thermo Electron Corporation). Plates were shaken for 5 sec to homogenize and then incubated at 37°C for 48 h in an atmosphere of 5% CO2, 5% O2, 90% N2. The ATP level of each well was determined using the BacTiter-Glo reagent (Promega) according to the recommendations of the manufacturer. The BacTiter-Glo assay generates a ‘glow-type’ luminescent signal produced by the luciferase reaction, which consists of mono-oxygenation of luciferin catalyzed by luciferase in the presence of Mg^2+, ATP and molecular oxygen. The luminescence was measured using a plate reader (Victor V, Perkin Elmer). […] The background value was subtracted from every other value of the assay prior to further calculation. The average of 16 replicates of vehicle control (0.5% or 0.1% DMSO) represents 100% of signal. Related to this value, each test concentration was calculated as percentage of control. […] However, there was no significant correlation between compound IC50 values obtained against gametocytes and the inhibition of growth of P. falciparum asexual forms as previously determined for TCAMS [6] […]

[9] = system: P. falciparum stage V gametocytes; parameters: BacTiter-Glo ATP luminescence viability of purified stage V gametocytes in 384-well plates, per cent inhibition versus DMSO; settings: 48 h, 5 µM; inhibitor
[10] = Plasmodium falciparum, P. falciparum gametocytes, average, read-out: IC50 Pf Gametocytes average, IC50 (µM) average
[11] = P. falciparum asexual stages, TCAMS data, read-out: IC50 (µM) Pf asexual stages
[12] = asexual stages, TCAMS data, read-out: IC50 asexual
[13] = HepG2, 48 h exposure, intracellular ATP, read-out: IC50 (μM) Cytotoxicity HepG2
[14] = IC50 per ratio column head, unit inferred, read-out: Cytotoxicity in HepG2
[15] = Plasmodium falciparum, sexual stages (gametocytes), dose-response, read-out: IC50 sexual

SMILES	IC50 [1, 10] [µM]	% Control luminiscence [2] [%]	IC50 [3, 11] [µM]	IC50 [3, 12] [µM]	Infection Prevalence (%) [5] [%]	% Prevalence of infection [5] [%]	% Reduction oocysts SMFA [5] [%]	Block in Transmission (%) [5] [%]	Reduction in Oocyst (%) [5] [%]	Ratio IC50 HepG2/IC50 P. falciparum [1]	IC90 ([1]; Plasmodium falciparum) [nM]	% Exflagellation inh. at the IC90 [6] [%]	IC50 at 48 h [7, 13] [µM]	IC50 at 48 h [7, 14] [µM]	Ratio IC50 HepG2/IC50 P. falciparum (HepG2 cells)	IC50 [1, 15] [µM]	other results
Clc1ccc(Nc2nc(-c3ccccn3)cs2)nc1 [TCMDC-123885]	0.67	100	0.77	0.774													reported as inhibitors of KCa2.2 [4]: inhibitors
Cc1[nH]c2ccccc2c1C(=O)C(C)Sc1nnc(-c2ccccc2Br)[nH]1 (stereo not drawn) [TCMDC-125114]	0.67	99	0.0348	0.035	2	2	100	98	100	74	2500	97	> 25	49.3	74		% Inhibition exflagellation [6]: 97.00%; IC50 ([3]; as previously determined for TCAMS, read-out: IC50 (μM) Pf Asexual stages): 0.03 µM
COc1cccc(NC(=O)[C@H](C(C)C)n2c(=O)[nH]c3ccccc3c2=O)c1 [TCMDC-125133]	0.54	100	0.27	0.266	3	3	100	97	100	>93	2500	88	> 25	> 50	>93	0.538	% Inhibition exflagellation [6]: 88.00%
CC(C)c1ccc(NC(=S)NN=Cc2ccccn2)cc1 [TCMDC-125520]	< 0.0098		0.72	0.724						>1306			13	12.8	>1306		IC50 [8]: 9.8 nM
Cc1ccnc(Nc2nc(-c3ccccn3)cs2)c1 [TCMDC-125769]	0.0433		1	0.998												0.043	IC50 ([1]; Plasmodium falciparum, gametocytes (GC), value as repeated in the Clusters sheet, read-out: IC50 GC): 0.04 µM; reported as inhibitors of KCa2.2 [4]: inhibitors
CCC1=C(C[C@H]2NCCc3cc(OC)c(OC)cc32)C[C@H]2c3cc(OC)c(OC)cc3CCN2C1 [TCMDC-131825]			0.31	0.312						>83					>83		IC50 ([1]; P. falciparum gametocytes, average, read-out: IC50 Pf Gametocytes average, IC50 (µM) average): 0.3 µM; IC50 [8]: 300 nM; IC50 (HepG2 cells; HepG2 cells, IC50 per ratio column head, unit inferred): > 25000 nM
NC(=O)c1ccccc1Nc1nc(Nc2ccn[nH]2)ncc1Cl [TCMDC-134169]																	% Inhibition [9]: -47.65%
Cc1ccccc1N1CCN(c2ccc(C(=O)NC3CC3)cn2)CC1 [TCMDC-134578]																	% Inhibition [9]: 39.4%
N=C(NCCCc1ccccc1)c1cccc(C(=N)NCCCc2ccccc2)n1 [TCMDC-137453]	0.31	100	1.38	1.38	5	5	100	95	100	41	2000	97.3	13	12.8	41	0.313	
